# According to ChEMBL document CHEMBL4308841, “Synthesis, in vitro antiproliferative activity, and kinase inhibitory effects of pyrazole-containing diarylureas and diarylamides” (Eur J Med Chem, 2018):
# Tested on: MOLT-4
# Experiment: Growth inhibition of human MOLT4 cells assessed as cell growth at 10 uM incubated for 48 hrs by sulforhodamine B assay relative to control
# Assay type: functional
# Conditions: MOLT-4, 48 h, read-out: Activity
row,SMILES,growth at 10 µM [%]
1,O=C(Nc1cccc(-n2cc(-c3ccncc3)c(-c3cc(O)cc(Cl)c3)n2)c1)c1ccc(N2CCOCC2)c(C(F)(F)F)c1,-29.7

# Tested on: HOP-62
# Experiment: Growth inhibition of human HOP62 cells assessed as cell growth at 10 uM incubated for 48 hrs by sulforhodamine B assay relative to control
# Assay type: functional
# Conditions: HOP-62, 48 h, read-out: Activity
row,SMILES,growth at 10 µM [%]
1,O=C(Nc1cccc(-n2cc(-c3ccncc3)c(-c3cc(O)cc(Cl)c3)n2)c1)c1ccc(N2CCOCC2)c(C(F)(F)F)c1,-2.19

# Tested on: NCI-H226
# Experiment: Growth inhibition of human NCI-H226 cells assessed as cell growth at 10 uM incubated for 48 hrs by sulforhodamine B assay relative to control
# Assay type: functional
# Conditions: NCI-H226, 48 h, read-out: Activity
row,SMILES,growth at 10 µM [%]
1,O=C(Nc1cccc(-n2cc(-c3ccncc3)c(-c3cc(O)cc(Cl)c3)n2)c1)c1ccc(N2CCOCC2)c(C(F)(F)F)c1,94.7

# Tested on: NCI-H460
# Experiment: Growth inhibition of human NCI-H460 cells assessed as cell growth at 10 uM incubated for 48 hrs by sulforhodamine B assay relative to control
# Assay type: functional
# Conditions: NCI-H460, 48 h, read-out: Activity
row,SMILES,growth at 10 µM [%]
1,O=C(Nc1cccc(-n2cc(-c3ccncc3)c(-c3cc(O)cc(Cl)c3)n2)c1)c1ccc(N2CCOCC2)c(C(F)(F)F)c1,-26.1

# Tested on: HCT-116
# Experiment: Growth inhibition of human HCT116 cells assessed as cell growth at 10 uM incubated for 48 hrs by sulforhodamine B assay relative to control
# Assay type: functional
# Conditions: HCT-116, 48 h, read-out: Activity
row,SMILES,growth at 10 µM [%]
1,O=C(Nc1cccc(-n2cc(-c3ccncc3)c(-c3cc(O)cc(Cl)c3)n2)c1)c1ccc(N2CCOCC2)c(C(F)(F)F)c1,12.7

# Tested on: LOX IMVI
# Experiment: Growth inhibition of human LOXIMVI cells assessed as cell growth at 10 uM incubated for 48 hrs by sulforhodamine B assay relative to control
# Assay type: functional
# Conditions: read-out: Activity
row,SMILES,growth at 10 µM [%]
1,O=C(Nc1cccc(-n2cc(-c3ccncc3)c(-c3cc(O)cc(Cl)c3)n2)c1)c1ccc(N2CCOCC2)c(C(F)(F)F)c1,-48.7

# Tested on: MDA-MB-435
# Experiment: Growth inhibition of human MDA-MB-435 cells assessed as cell growth at 10 uM incubated for 48 hrs by sulforhodamine B assay relative to control
# Assay type: functional
# Conditions: MDA-MB-435, 48 h, read-out: Activity
row,SMILES,growth at 10 µM [%]
1,O=C(Nc1cccc(-n2cc(-c3ccncc3)c(-c3cc(O)cc(Cl)c3)n2)c1)c1ccc(N2CCOCC2)c(C(F)(F)F)c1,23

# Tested on: UACC-257
# Experiment: Growth inhibition of human UACC257 cells assessed as cell growth at 10 uM incubated for 48 hrs by sulforhodamine B assay relative to control
# Assay type: functional
# Conditions: UACC-257, 48 h, read-out: Activity
row,SMILES,growth at 10 µM [%]
1,O=C(Nc1cccc(-n2cc(-c3ccncc3)c(-c3cc(O)cc(Cl)c3)n2)c1)c1ccc(N2CCOCC2)c(C(F)(F)F)c1,9.38

# Tested on: UACC-62
# Experiment: Growth inhibition of human UACC62 cells assessed as cell growth at 10 uM incubated for 48 hrs by sulforhodamine B assay relative to control
# Assay type: functional
# Conditions: UACC-62, 48 h, read-out: Activity
row,SMILES,growth at 10 µM [%]
1,O=C(Nc1cccc(-n2cc(-c3ccncc3)c(-c3cc(O)cc(Cl)c3)n2)c1)c1ccc(N2CCOCC2)c(C(F)(F)F)c1,10.8

# Tested on: IGROV-1
# Experiment: Growth inhibition of human IGROV1 cells assessed as cell growth at 10 uM incubated for 48 hrs by sulforhodamine B assay relative to control
# Assay type: functional
# Conditions: IGROV-1, 48 h, read-out: Activity
row,SMILES,growth at 10 µM [%]
1,O=C(Nc1cccc(-n2cc(-c3ccncc3)c(-c3cc(O)cc(Cl)c3)n2)c1)c1ccc(N2CCOCC2)c(C(F)(F)F)c1,44.3

# Tested on: OVCAR-3
# Experiment: Growth inhibition of human OVCAR3 cells assessed as cell growth at 10 uM incubated for 48 hrs by sulforhodamine B assay relative to control
# Assay type: functional
# Conditions: OVCAR-3, 48 h, read-out: Activity
row,SMILES,growth at 10 µM [%]
1,O=C(Nc1cccc(-n2cc(-c3ccncc3)c(-c3cc(O)cc(Cl)c3)n2)c1)c1ccc(N2CCOCC2)c(C(F)(F)F)c1,36.4

# Tested on: NCI/ADR-RES
# Experiment: Growth inhibition of human NCI/ADR-RES cells assessed as cell growth at 10 uM incubated for 48 hrs by sulforhodamine B assay relative to control
# Assay type: functional
# Conditions: read-out: Activity
row,SMILES,growth at 10 µM [%]
1,O=C(Nc1cccc(-n2cc(-c3ccncc3)c(-c3cc(O)cc(Cl)c3)n2)c1)c1ccc(N2CCOCC2)c(C(F)(F)F)c1,35

# Tested on: SK-OV-3
# Experiment: Growth inhibition of human SKOV3 cells assessed as cell growth at 10 uM incubated for 48 hrs by sulforhodamine B assay relative to control
# Assay type: functional
# Conditions: SK-OV-3, 48 h, read-out: Activity
row,SMILES,growth at 10 µM [%]
1,O=C(Nc1cccc(-n2cc(-c3ccncc3)c(-c3cc(O)cc(Cl)c3)n2)c1)c1ccc(N2CCOCC2)c(C(F)(F)F)c1,50.7

# Tested on: 786-0
# Experiment: Growth inhibition of human 786-0 cells assessed as cell growth at 10 uM incubated for 48 hrs by sulforhodamine B assay relative to control
# Assay type: functional
# Conditions: 786-0, 48 h, read-out: Activity
row,SMILES,growth at 10 µM [%]
1,O=C(Nc1cccc(-n2cc(-c3ccncc3)c(-c3cc(O)cc(Cl)c3)n2)c1)c1ccc(N2CCOCC2)c(C(F)(F)F)c1,36.6

# Tested on: ACHN
# Experiment: Growth inhibition of human ACHN cells assessed as cell growth at 10 uM incubated for 48 hrs by sulforhodamine B assay relative to control
# Assay type: functional
# Conditions: read-out: Activity
row,SMILES,growth at 10 µM [%]
1,O=C(Nc1cccc(-n2cc(-c3ccncc3)c(-c3cc(O)cc(Cl)c3)n2)c1)c1ccc(N2CCOCC2)c(C(F)(F)F)c1,20.7

# Tested on: CAKI-1
# Experiment: Growth inhibition of human Caki1 cells assessed as cell growth at 10 uM incubated for 48 hrs by sulforhodamine B assay relative to control
# Assay type: functional
# Conditions: CAKI-1, 48 h, read-out: Activity
row,SMILES,growth at 10 µM [%]
1,O=C(Nc1cccc(-n2cc(-c3ccncc3)c(-c3cc(O)cc(Cl)c3)n2)c1)c1ccc(N2CCOCC2)c(C(F)(F)F)c1,14.8

# Tested on: RXF 393
# Experiment: Growth inhibition of human RXF393 cells assessed as cell growth at 10 uM incubated for 48 hrs by sulforhodamine B assay relative to control
# Assay type: functional
# Conditions: RXF 393, 48 h, read-out: Activity
row,SMILES,growth at 10 µM [%]
1,O=C(Nc1cccc(-n2cc(-c3ccncc3)c(-c3cc(O)cc(Cl)c3)n2)c1)c1ccc(N2CCOCC2)c(C(F)(F)F)c1,-45.6

# Tested on: SN12C
# Experiment: Growth inhibition of human SN12C cells assessed as cell growth at 10 uM incubated for 48 hrs by sulforhodamine B assay relative to control
# Assay type: functional
# Conditions: read-out: Activity
row,SMILES,growth at 10 µM [%]
1,O=C(Nc1cccc(-n2cc(-c3ccncc3)c(-c3cc(O)cc(Cl)c3)n2)c1)c1ccc(N2CCOCC2)c(C(F)(F)F)c1,46.4

# Tested on: UO-31
# Experiment: Growth inhibition of human UO31 cells assessed as cell growth at 10 uM incubated for 48 hrs by sulforhodamine B assay relative to control
# Assay type: functional
# Conditions: UO-31, 48 h, read-out: Activity
row,SMILES,growth at 10 µM [%]
1,O=C(Nc1cccc(-n2cc(-c3ccncc3)c(-c3cc(O)cc(Cl)c3)n2)c1)c1ccc(N2CCOCC2)c(C(F)(F)F)c1,3.98
